The values below come from EP4678638A1, “NEW E3 UBIQUITIN LIGASE LIGAND, PROTEIN DEGRADATION AGENT AND USE THEREOF” (priority 2023, dated 2024).

Like-named read-outs stand apart in the source and are kept apart here.

One assay concerns H1975. In words: CCK-8 proliferation, NCI-H1975 (H1975). The settings on record: Homo sapiens, NCI-H1975. The format is cell-based, Human. The procedure:
(§1) The tumor cells used herein were cultured in a cell culture medium listed in table A1 at 37°C in an incubator with 5% CO2. Prior to experimentation, all cell lines used were correctly identified by STR profiling, and tested negative for mycoplasma contamination using a mycoplasma detection kit through routine screenings. Table A1. Tumor cells and cell culture medium used in the present disclosure
(§2) IC50 values of the compounds of the present disclosure (including the compounds in Table 1, and compounds of examples) were measured using the Meilun Cell Counting Kit-8 kit from Dalian Meilun Biotech Co., Ltd. Assay details are as follows: tumor cells were seeded in a 96-well plate at a density listed in Table A2. After 24h, 100 µL of the inoculated cells were treated with 0.5µL of the compounds of the present disclosure (including the compounds in Tables 1 and 2, and compounds of examples) at 10 different successively decreasing concentrations (starting at the highest concentration of 10µM; 5-fold serial dilutions). After the cells were treated with the compounds of the present disclosure for a period of time, the cell viability detection reagent was added to the culture medium for cell viability assessment according to the instructions provided with the CCK-8 kit. […] The growth inhibition of the compounds of the present disclosure on cells was plotted by Prism Graphpad software, and the IC50 values of the compounds of the present disclosure were calculated therefrom. […] Seeding protocol and treatment time for tumor cells

For the next assay, the system named is H2228. Kind of assay: CCK-8 proliferation, NCI-H2228 (H2228). Type of assay: cell-based. The following applies: Homo sapiens, NCI-H2228; Table B6, compounds designed based on the ALK inhibitors; H2228 cells; read-out: Inhibitory activity (IC50, nM) on tumor cell proliferation, H2228. The procedure:
as §1, §2

A further assay concerns SR. Kind of assay: CCK-8 proliferation, SR. The format is cell-based, Human. The following applies: Homo sapiens; Table B6, compounds designed based on the ALK inhibitors; SR cells; read-out: Inhibitory activity (IC50, nM) on tumor cell proliferation, SR. Here is the method:
as §1, §2

Another assay has as its system MCF7. Kind of assay: CCK-8 proliferation, MCF7 (MCF-7). The following applies: Homo sapiens, MCF7. Type of assay: cell-based. Here is the method: as §1, §2
Where [1] appears, read: Table B6, compounds designed based on the ALK inhibitors, H1975 cells, read-out: Inhibitory activity (IC50, nM) on tumor cell proliferation, H1975.
Setting [2] is: Table B6, compounds designed based on the ALK inhibitors, MCF-7 cells, read-out: Inhibitory activity (IC50, nM) on tumor cell proliferation, MCF-7.
Setting [3] is: CCK-8, 96 hours, read-out: Inhibitory activity (IC50) on tumor cell proliferation, H1975.

Take `COc1cc(N2CCN(Cc3ccc(N4CCC(=O)NC4=O)nc3)CC2)ccc1Nc1ncc(Cl)c(Nc2ccccc2P(C)(C)=O)n1` [GT-07350, 1-(5-((4-(4-((5-chloro-4-((2-(dimethylphosphoryl)phenyl)amino)pyrimidin-2-yl)amino)-3-methoxyphenyl)piperazin-1-yl)methyl)pyridin-2-yl)dihydropyrimidine-2,4(1H,3H)-dione]: the IC50 in the assay on H1975 (setting [1]) fell in the range of 500 to 1000 nM; in the assay on H2228 it was 100 to 500 nM; in the assay on SR, 50 to 100 nM.
In the case of `CC(=O)c1c(C)c2cnc(Nc3ccc(N4CCN(Cc5cccc(N6CCC(=O)NC6=O)c5)CC4)cn3)nc2n(C2CCCC2)c1=O` [GT-06577, 1-(3-((4-(6-((6-acetyl-8-cyclopentyl-5-methyl-7-oxo-7,8-dihydropyrido[2,3-d]pyrimidin-2-yl)amino)pyridin-3-yl)piperazin-1-yl)methyl)phenyl)dihydropyr imidine-2,4(1H,3H)-dione], the IC50 in the assay with MCF7 (CCK-8, read-out: Inhibitory activity (IC50) on tumor cell proliferation, MCF7) was in the range of 100 to 500 nM.
As for `COc1cc(N2CCN(Cc3ccnc(C4CCC(=O)NC4=O)c3)CC2)ccc1Nc1ncc(Cl)c(Nc2ccccc2P(C)(C)=O)n1` (stereo not drawn) [GT-07712, 3-(4-((4-(4-((5-chloro-4-((2-(dimethylphosphoryl)phenyl)amino)pyrimidin-2-yl)amino)-3-methoxyphenyl)piperazin-1-yl)methyl)pyridin-2-yl)piperidine-2,6-dione], the figures for the IC50 in the assay on H1975 (setting [1]), in the assay on H2228 and in the assay with SR were 500 to 1000 nM, 100 to 500 nM and 10 to 50 nM, respectively.
On to `CCc1cc2c(cc1N1CCC(N3CCN(Cc4cccc(NC5CCC(=O)NC5=O)c4)CC3)CC1)C(C)(C)c1[nH]c3cc(C#N)ccc3c1C2=O` (stereo not drawn) [GT-07313, 8-(4-(4-(3-((2,6-dioxopiperidin-3-yl)amino)benzyl)piperazin-1-yl)piperidin-1-yl)-9-ethyl-6,6-dimethyl-11-oxo-6,11-dihydro-5H-benzo[b]carbazole-3-carbonitrile], for which the IC50 was in the range of 100 to 500 nM in the assay on H2228 and 1 to 10 nM in the assay on SR.
Take `CCc1cc2c(cc1N1CCC(N3CCN(Cc4ccnc(C5CCC(=O)NC5=O)c4)CC3)CC1)C(C)(C)c1[nH]c3cc(C#N)ccc3c1C2=O` (stereo not drawn) [GT-07704, 8-(4-(4-((2-(2,6-dioxopiperidin-3-yl)pyridin-4-yl)methyl)piperazin-1-yl)piperidin-1-yl)-9-ethyl-6,6-dimethyl-11-oxo-6,11-dihydro-5H-benzo[b]carbazole-3-carbonitrile]: the IC50 lay within 500 to 1000 nM with H1975 (setting [1]), 50 to 100 nM in the assay on H2228 and 1 to 10 nM in the assay on SR.
Consider `Cc1cc(Nc2ncc(Cl)c(Nc3ccccc3S(=O)(=O)C(C)C)n2)c(OC(C)C)cc1C1CCN(Cc2ccc(C3CCC(=O)NC3=O)c(F)c2)CC1` (stereo not drawn) [GT-07365, 3-(4-((4-(4-((5-chloro-4-((2-(isopropylsulfonyl)phenyl)amino)pyrimidin-2-yl)amino)-5-isopropoxy-2-methylphenyl)piperidin-1-yl)methyl)-2-fluorophenyl)piperidine-2,6-dione], for which the IC50 with H2228 and with SR was 100 to 500 nM throughout.
As to `CCc1cc2c(cc1N1CCC(N3CCN(Cc4ccc(N5CCC(=O)NC5=O)cc4)CC3)CC1)C(C)(C)c1[nH]c3cc(C#N)ccc3c1C2=O` [GT-07307, 8-(4-(4-(4-(2,4-dioxotetrahydropyrimidin-1(2H)-yl)benzyl)piperazin-1-yl)piperidin-1-yl)-9-ethyl-6,6-dimethyl-11-oxo-6,11-dihydro-5H-benzo[b]carbazole-3-carbonitrile], the IC50 is 100 to 500 nM with H2228, 10 to 50 nM in the assay with SR and 100 to 500 nM with MCF7 (setting [2]).
As to `COc1cc(N2CCN(Cc3cncc(N4CCC(=O)NC4=O)c3)CC2)ccc1Nc1ncc(Cl)c(Nc2ccccc2P(C)(C)=O)n1` [GT-07709, 1-(5-((4-(4-((5-chloro-4-((2-(dimethylphosphoryl)phenyl)amino)pyrimidin-2-yl)amino)-3-methoxyphenyl)piperazin-1-yl)methyl)pyridin-3-yl)dihydropyrimidine-2,4(1H,3H)-dione], the IC50 in the assay on H2228 lay within 500 to 1000 nM; in the assay with SR, 50 to 100 nM.
`Cc1cc(Nc2ncc(Cl)c(Nc3ccccc3S(=O)(=O)C(C)C)n2)c(OC(C)C)cc1C1CCN(Cc2cc(C3CCC(=O)NC3=O)cnc2F)CC1` (stereo not drawn) [GT-07598, 3-(5-((4-(4-((5-chloro-4-((2-(isopropylsulfonyl)phenyl)amino)pyrimidin-2-yl)amino)-5-isopropoxy-2-methylphenyl)piperidin-1-yl)methyl)-6-fluoropyridin-3-yl)piperidine-2,6-dione]: the IC50 in the assay on H2228 and in the assay on SR was 100 to 500 nM in each case.
Regarding `CCc1cc2c(cc1N1CCC(N3CCN(Cc4cc(N5CCC(=O)NC5=O)ncc4F)CC3)CC1)C(C)(C)c1[nH]c3cc(C#N)ccc3c1C2=O` [GT-07700, 8-(4-(4-((2-(2,4-dioxotetrahydropyrimidin-1(2H)-yl)-5-fluoropyridin-4-yl)methyl)piperazin-1-yl)piperidin-1-yl)-9-ethyl-6,6-dimethyl-11-oxo-6,11-dihydro-5H-benzo[b]carbazole-3-carbonitrile], the IC50 in the assay on H2228 was 50 to 100 nM; in the assay with SR, 1 to 10 nM; in the assay on MCF7 (setting [2]), 500 to 1000 nM.
`O=C1CCC(c2ccc(CN3C[C@H]4C[C@@H]3CN4c3ccc(-c4cc(F)c5c(c4)C(=O)N(C(C(=O)Nc4nccs4)c4ncn6c4CCC6)C5)cc3)cc2)C(=O)N1` (stereo partly drawn) [GT-06176, 2-(6,7-dihydro-5H-pyrrolo[1,2-c]imidazol-1-yl)-2-(6-(4-((1R,4R)-5-(4-(2,6-dioxopiperidin-3-yl)benzyl)-2,5-diazabicyclo[2.2.1]heptan-2-yl)phenyl)-4-fluoro-1-oxoisoindolin-2-yl)-N-(thiazol-2-yl)acetamide]: the IC50 with H1975 (setting [3]) was 1 to 10 nM.
Turning to `O=C1CCN(c2ccc(CN3CCC(N4CCN(c5ccc(-c6cc(F)c7c(c6)C(=O)N(C(C(=O)Nc6nccs6)c6ncn8c6CCC8)C7)cc5)CC4)CC3)cc2)C(=O)N1` (stereo not drawn) [GT-06327, 2-(6,7-dihydro-5H-pyrrolo[1,2-c]imidazol-1-yl)-2-(6-(4-(4-(1-(4-(2,4-dioxotetrahydropyrimidin-1(2H)-yl)benzyl)piperidin-4-yl)piperazin-1-yl)phenyl)-4-fluoro-1-oxoisoindolin-2-yl)-N-(thiazol-2-yl)acetamide], in the assay on H1975 (setting [3]), the IC50 lay within 1 to 10 nM.
As to `O=C1CCC(c2cnc(F)c(CN3C[C@H]4C[C@@H]3CN4c3ccc(-c4cc(F)c5c(c4)C(=O)N(C(C(=O)Nc4nccs4)c4ncn6c4CCC6)C5)cc3)c2)C(=O)N1` (stereo partly drawn) [GT-07562, 2-(6,7-dihydro-5H-pyrrolo[1,2-c]imidazol-1-yl)-2-(6-(4-((1R,4R)-5-((5-(2,6-dioxopiperidin-3-yl)-2-fluoropyridin-3-yl)methyl)-2,5-diazabicyclo[2.2.1]heptan-2-yl)phenyl)-4-fluoro-1-oxoisoindolin-2-yl)-N-(thiazol-2-yl)acetamide], the IC50 in the assay on H1975 (setting [3]) lay in the range of 10 to 50 nM.
In the case of `CN(Cc1cc(N2CCC(=O)NC2=O)ncc1F)C1CCN(c2ccc(-c3cc(F)c4c(c3)C(=O)N(C(C(=O)Nc3nccs3)c3ncn5c3CCC5)C4)cc2)CC1` (stereo not drawn) [GT-07382, 2-(6,7-dihydro-5H-pyrrolo[1,2-c]imidazol-1-yl)-2-(6-(4-(4-(((2-(2,4-dioxotetrahydropyrimidin-1(2H)-yl)-5-fluoropyridin-4-yl)methyl)(methyl)amino)piperidin-1-yl)phenyl)-4-fluoro-1-oxoisoindolin-2-yl)-N-(thiazol-2-yl)acetamide], in the assay on H1975 (setting [3]), the IC50 lay in the range of 10 to 50 nM.
The same measure, in the same setting: the same measure for `CN(Cc1cc(C2CCC(=O)NC2=O)cnc1F)C1CCN(c2ccc(-c3cc(F)c4c(c3)C(=O)N(C(C(=O)Nc3nccs3)c3ncn5c3CCC5)C4)cc2)CC1` (stereo not drawn) [GT-07560, 2-(6,7-dihydro-5H-pyrrolo[1,2-c]imidazol-1-yl)-2-(6-(4-(4-(((5-(2,6-dioxopiperidin-3-yl)-2-fluoropyridin-3-yl)methyl)(methyl)amino)piperidin-1-yl)phenyl)-4-fluoro-1-oxoisoindolin-2-yl)-N-(thiazol-2-yl)acetamide]: 1 to 10 nM; for `O=C1CCC(Nc2ncccc2CN2CCN(c3ccc(-c4cc(F)c5c(c4)C(=O)N(C(C(=O)Nc4nccs4)c4ncn6c4CCC6)C5)cc3)CC2)C(=O)N1` (stereo not drawn) [GT-07489, 2-(6,7-dihydro-5H-pyrrolo[1,2-c]imidazol-1-yl)-2-(6-(4-(4-((2-((2,6-dioxopiperidin-3-yl)amino)pyridin-3-yl)methyl)piperazin-1-yl)phenyl)-4-fluoro-1-oxoisoindolin-2-yl)-N-(thiazol-2-yl)acetamide]: 10 to 50 nM.
